The source made the active and inactive calls.
Assays:
[1] = molecular target: T1, Serine/threonine-protein kinase Nek1 (Homo sapiens, UniProt Q96PY6)
T1 sequence (Q96PY6 whole entry): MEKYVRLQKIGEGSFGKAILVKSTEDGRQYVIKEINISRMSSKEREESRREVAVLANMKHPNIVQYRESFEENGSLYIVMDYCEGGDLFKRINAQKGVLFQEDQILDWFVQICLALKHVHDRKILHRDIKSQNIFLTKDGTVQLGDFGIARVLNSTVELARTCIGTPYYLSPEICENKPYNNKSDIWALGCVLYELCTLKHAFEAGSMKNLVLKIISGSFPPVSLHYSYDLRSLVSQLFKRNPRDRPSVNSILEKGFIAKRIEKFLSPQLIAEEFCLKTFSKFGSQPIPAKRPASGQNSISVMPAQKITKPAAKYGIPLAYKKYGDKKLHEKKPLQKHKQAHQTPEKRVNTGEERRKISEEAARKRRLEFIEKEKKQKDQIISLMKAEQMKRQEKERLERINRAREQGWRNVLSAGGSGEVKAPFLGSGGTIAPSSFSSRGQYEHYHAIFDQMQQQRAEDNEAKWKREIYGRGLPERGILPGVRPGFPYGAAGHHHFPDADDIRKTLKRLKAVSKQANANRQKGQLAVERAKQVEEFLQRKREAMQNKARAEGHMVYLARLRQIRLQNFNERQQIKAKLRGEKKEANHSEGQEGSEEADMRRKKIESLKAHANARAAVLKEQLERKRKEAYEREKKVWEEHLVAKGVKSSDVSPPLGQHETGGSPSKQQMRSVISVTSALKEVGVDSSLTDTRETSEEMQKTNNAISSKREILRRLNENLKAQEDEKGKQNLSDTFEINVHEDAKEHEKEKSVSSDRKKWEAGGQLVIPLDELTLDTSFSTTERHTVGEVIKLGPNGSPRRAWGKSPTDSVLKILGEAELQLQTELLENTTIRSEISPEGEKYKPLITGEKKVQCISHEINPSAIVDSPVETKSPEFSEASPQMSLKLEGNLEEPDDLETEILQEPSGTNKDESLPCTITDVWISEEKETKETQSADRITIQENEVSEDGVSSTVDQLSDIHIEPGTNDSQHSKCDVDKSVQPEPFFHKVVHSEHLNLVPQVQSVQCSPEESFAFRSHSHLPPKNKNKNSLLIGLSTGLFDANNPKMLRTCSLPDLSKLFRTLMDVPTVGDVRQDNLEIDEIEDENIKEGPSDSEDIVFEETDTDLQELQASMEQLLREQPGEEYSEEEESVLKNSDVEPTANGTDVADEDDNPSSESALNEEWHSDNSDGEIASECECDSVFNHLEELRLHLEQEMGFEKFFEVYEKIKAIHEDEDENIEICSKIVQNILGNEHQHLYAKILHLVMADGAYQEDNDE

[2] = molecular target: T2, Serine/threonine-protein kinase 3 (Homo sapiens, UniProt Q13188)
T2 sequence (Q13188 whole entry): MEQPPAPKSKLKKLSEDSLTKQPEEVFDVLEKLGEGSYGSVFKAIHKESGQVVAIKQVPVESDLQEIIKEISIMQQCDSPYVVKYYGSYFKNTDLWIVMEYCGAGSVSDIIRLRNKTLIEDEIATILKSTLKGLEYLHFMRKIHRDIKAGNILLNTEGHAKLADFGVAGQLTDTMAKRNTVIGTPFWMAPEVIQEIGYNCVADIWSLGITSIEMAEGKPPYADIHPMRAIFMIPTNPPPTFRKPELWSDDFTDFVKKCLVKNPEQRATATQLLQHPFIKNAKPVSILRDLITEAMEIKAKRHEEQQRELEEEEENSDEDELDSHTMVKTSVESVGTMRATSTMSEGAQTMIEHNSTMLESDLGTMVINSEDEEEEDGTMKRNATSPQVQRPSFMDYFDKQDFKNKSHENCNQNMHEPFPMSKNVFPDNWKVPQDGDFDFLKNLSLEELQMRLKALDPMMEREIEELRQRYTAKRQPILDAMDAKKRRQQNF

Activin receptor type-2B = Activin receptor type-2B (Homo sapiens, UniProt Q13705)
[3] = molecular target: NADH dehydrogenase [ubiquinone] 1 alpha subcomplex subunit 13 (Homo sapiens, UniProt Q9P0J0)
Wee1-like protein kinase = Wee1-like protein kinase (Homo sapiens, UniProt P30291)
[4] = molecular target: Tyrosine-protein kinase ABL1 (Homo sapiens, UniProt P00519)
[5] = molecular target: Serine/threonine-protein kinase 26 (Homo sapiens, UniProt Q9P289)
Glycine--tRNA ligase = molecular target: T3, Glycine--tRNA ligase (Homo sapiens, UniProt P41250)
T3 sequence (P41250 whole entry): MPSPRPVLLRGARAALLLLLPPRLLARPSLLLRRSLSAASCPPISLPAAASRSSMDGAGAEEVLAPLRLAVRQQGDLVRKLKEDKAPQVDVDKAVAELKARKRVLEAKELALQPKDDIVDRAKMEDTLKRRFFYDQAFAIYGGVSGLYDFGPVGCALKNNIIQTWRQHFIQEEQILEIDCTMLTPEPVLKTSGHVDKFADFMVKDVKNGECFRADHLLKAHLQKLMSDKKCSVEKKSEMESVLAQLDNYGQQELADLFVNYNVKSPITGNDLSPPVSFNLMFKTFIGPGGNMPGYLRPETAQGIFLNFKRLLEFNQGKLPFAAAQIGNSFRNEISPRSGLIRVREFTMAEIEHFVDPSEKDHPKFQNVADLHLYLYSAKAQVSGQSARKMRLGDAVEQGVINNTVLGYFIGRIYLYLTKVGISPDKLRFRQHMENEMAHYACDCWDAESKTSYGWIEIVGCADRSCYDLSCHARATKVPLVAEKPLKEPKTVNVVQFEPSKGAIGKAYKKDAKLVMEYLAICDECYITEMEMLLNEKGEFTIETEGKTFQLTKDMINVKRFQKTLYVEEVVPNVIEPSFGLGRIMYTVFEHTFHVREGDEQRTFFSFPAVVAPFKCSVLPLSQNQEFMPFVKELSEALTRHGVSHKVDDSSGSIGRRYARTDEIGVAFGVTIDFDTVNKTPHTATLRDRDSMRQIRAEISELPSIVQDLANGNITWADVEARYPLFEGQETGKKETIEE
Also: in the data inactive means no Kd found up to 30 µM.

Chain of Wee1-like protein kinase (P30291 whole entry): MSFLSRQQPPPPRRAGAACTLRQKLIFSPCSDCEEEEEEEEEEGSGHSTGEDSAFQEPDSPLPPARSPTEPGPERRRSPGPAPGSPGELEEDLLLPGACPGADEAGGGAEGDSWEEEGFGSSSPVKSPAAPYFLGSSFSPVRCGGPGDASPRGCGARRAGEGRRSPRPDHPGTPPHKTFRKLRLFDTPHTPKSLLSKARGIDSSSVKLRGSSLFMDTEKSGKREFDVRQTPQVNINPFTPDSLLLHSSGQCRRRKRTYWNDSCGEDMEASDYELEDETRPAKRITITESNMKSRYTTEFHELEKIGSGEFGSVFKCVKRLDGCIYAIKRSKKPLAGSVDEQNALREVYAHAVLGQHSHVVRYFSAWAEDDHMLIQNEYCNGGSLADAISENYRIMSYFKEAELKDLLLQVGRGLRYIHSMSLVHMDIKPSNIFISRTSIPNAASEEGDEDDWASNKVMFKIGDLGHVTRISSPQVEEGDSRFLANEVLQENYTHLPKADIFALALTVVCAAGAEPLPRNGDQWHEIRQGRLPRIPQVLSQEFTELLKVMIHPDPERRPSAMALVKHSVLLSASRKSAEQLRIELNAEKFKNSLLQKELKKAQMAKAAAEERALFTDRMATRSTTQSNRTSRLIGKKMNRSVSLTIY
Chain of Serine/threonine-protein kinase 26 (Q9P289 whole entry): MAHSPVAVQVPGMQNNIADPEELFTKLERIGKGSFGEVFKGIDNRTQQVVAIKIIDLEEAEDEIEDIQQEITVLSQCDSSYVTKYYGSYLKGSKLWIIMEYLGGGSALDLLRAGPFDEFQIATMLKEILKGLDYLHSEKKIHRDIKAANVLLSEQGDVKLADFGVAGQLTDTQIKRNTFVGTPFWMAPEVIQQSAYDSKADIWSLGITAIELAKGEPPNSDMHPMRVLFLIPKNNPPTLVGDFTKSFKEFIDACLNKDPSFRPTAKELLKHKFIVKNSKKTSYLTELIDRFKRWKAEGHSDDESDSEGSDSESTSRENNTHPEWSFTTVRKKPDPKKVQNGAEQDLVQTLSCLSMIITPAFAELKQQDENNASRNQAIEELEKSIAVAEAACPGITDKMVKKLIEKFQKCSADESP
Chain of NADH dehydrogenase [ubiquinone] 1 alpha subcomplex subunit 13 (Q9P0J0 whole entry, one chain of several): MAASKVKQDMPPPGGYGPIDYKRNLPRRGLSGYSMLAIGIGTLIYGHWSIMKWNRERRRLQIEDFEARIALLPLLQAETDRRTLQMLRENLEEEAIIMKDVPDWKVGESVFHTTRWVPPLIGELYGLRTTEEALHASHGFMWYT
Chain of Tyrosine-protein kinase ABL1 (P00519 whole entry): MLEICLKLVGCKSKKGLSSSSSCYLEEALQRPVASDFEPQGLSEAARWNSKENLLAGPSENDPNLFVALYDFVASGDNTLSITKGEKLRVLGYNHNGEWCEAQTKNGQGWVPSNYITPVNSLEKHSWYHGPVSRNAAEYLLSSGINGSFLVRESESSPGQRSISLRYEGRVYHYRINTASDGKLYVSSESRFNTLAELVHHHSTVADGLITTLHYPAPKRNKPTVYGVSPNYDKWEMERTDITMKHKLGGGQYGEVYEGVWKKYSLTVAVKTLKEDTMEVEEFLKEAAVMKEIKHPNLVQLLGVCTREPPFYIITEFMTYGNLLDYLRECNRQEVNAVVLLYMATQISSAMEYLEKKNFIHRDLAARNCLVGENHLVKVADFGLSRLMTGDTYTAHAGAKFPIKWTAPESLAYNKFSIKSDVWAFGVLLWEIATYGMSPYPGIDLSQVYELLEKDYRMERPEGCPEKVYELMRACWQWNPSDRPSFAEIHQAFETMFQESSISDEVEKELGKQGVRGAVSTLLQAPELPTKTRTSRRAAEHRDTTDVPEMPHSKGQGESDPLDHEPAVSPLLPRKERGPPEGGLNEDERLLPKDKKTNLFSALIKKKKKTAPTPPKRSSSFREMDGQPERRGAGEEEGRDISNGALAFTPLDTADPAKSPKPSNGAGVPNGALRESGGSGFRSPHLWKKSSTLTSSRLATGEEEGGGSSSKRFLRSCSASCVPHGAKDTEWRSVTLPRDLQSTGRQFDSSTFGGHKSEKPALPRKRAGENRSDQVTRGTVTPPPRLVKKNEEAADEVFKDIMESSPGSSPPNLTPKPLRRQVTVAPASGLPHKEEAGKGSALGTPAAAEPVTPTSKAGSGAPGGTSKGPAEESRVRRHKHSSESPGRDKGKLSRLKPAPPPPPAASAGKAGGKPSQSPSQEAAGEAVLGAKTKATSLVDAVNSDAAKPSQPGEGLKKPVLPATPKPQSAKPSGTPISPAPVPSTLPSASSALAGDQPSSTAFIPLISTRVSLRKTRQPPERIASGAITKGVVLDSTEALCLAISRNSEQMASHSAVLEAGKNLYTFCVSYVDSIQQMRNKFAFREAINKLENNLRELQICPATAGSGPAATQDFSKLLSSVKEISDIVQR
Chain of Activin receptor type-2B (Q13705 whole entry): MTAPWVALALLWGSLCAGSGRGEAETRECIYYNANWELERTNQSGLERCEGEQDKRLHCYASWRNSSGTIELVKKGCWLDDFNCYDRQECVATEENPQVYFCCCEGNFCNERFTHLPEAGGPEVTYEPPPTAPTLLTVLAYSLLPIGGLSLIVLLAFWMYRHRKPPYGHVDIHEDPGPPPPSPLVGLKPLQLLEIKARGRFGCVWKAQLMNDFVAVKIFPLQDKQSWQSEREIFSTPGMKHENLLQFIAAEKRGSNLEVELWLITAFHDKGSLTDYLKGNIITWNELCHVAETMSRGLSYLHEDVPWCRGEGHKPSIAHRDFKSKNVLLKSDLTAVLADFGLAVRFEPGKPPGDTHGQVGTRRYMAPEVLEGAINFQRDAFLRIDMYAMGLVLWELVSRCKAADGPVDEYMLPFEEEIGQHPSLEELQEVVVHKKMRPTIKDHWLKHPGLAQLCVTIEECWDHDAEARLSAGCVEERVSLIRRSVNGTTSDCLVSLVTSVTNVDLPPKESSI

Kd [1] | Kd [2] | Kd (Activin receptor type-2B) | Kd [3] | Kd (Wee1-like protein kinase) | Kd [4] | Kd [5] | Kd (Glycine--tRNA ligase) | Compound
> 30 µM (inactive) | > 30 µM (inactive) | > 30 µM (inactive) | > 30 µM (inactive) | > 30 µM (inactive) | > 30 µM (inactive) | > 30 µM (inactive) | > 30 µM (inactive) | CN1CCC(CNc2ccc3ncc(-c4cccc(OC(F)(F)F)c4)n3n2)CC1 [SGI-1776]
> 30 µM (inactive) | > 30 µM (inactive) | > 30 µM (inactive) | > 30 µM (inactive) | > 30 µM (inactive) | > 30 µM (inactive) | > 30 µM (inactive) | > 30 µM (inactive) | O=c1sn(-c2cccc3ccccc23)c(=O)n1Cc1ccccc1 [TIDEGLUSIB]
> 30 µM (inactive) | > 30 µM (inactive) | > 30 µM (inactive) | > 30 µM (inactive) | > 30 µM (inactive) | > 30 µM (inactive) | > 30 µM (inactive) | > 30 µM (inactive) | COc1cc(OC)c(/C=C/S(=O)(=O)Cc2ccc(OC)c(NCC(=O)O)c2)c(OC)c1 [RIGOSERTIB]
> 30 µM (inactive) | > 30 µM (inactive) | > 30 µM (inactive) | > 30 µM (inactive) | > 30 µM (inactive) | > 30 µM (inactive) | > 30 µM (inactive) | > 30 µM (inactive) | CN(C)C(=O)c1cc2cnc(Nc3ccc(N4CCNCC4)cn3)nc2n1C1CCCC1 [RIBOCICLIB]
> 30 µM (inactive) | > 30 µM (inactive) | > 30 µM (inactive) | > 30 µM (inactive) | > 30 µM (inactive) | > 30 µM (inactive) | > 30 µM (inactive) | > 30 µM (inactive) | CC[C@H](Nc1ncnc2[nH]cnc12)c1nc2cccc(F)c2c(=O)n1-c1ccccc1 [IDELALISIB]
> 30 µM (inactive) | > 30 µM (inactive) | > 30 µM (inactive) | > 30 µM (inactive) | > 30 µM (inactive) | > 30 µM (inactive) | > 30 µM (inactive) | > 30 µM (inactive) | COC(=O)N[C@@H](C)CNc1nccc(-c2cn(C(C)C)nc2-c2cc(Cl)cc(NS(C)(=O)=O)c2F)n1 [ENCORAFENIB]
> 30 µM (inactive) | > 30 µM (inactive) | > 30 µM (inactive) | > 30 µM (inactive) | > 30 µM (inactive) | > 30 µM (inactive) | > 30 µM (inactive) | > 30 µM (inactive) | C1=C/COCc2cc(ccc2OCCN2CCCC2)Nc2nccc(n2)-c2cccc(c2)COC/1 [PACRITINIB]
> 30 µM (inactive) | > 30 µM (inactive) | > 30 µM (inactive) | > 30 µM (inactive) | > 30 µM (inactive) | > 30 µM (inactive) | > 30 µM (inactive) | > 30 µM (inactive) | Cn1cc(-c2ccc3nnc(C(F)(F)c4ccc5ncccc5c4)n3n2)cn1 [JNJ-38877605]
> 30 µM (inactive) | > 30 µM (inactive) | > 30 µM (inactive) | > 30 µM (inactive) | > 30 µM (inactive) | 0.241 µM (active) | > 30 µM (inactive) | > 30 µM (inactive) | COCCNCc1ccc(-c2cc3nccc(Oc4ccc(NC(=S)NC(=O)Cc5ccc(F)cc5)cc4F)c3s2)nc1 [GLESATINIB]
> 30 µM (inactive) | > 30 µM (inactive) | > 30 µM (inactive) | > 30 µM (inactive) | > 30 µM (inactive) | > 30 µM (inactive) | > 30 µM (inactive) | > 30 µM (inactive) | N[C@@H]1CCCN(c2c(/C=C3\SC(=O)NC3=O)cccc2-c2ccccc2)C1
> 30 µM (inactive) | > 30 µM (inactive) | > 30 µM (inactive) | > 30 µM (inactive) | > 30 µM (inactive) | > 30 µM (inactive) | > 30 µM (inactive) | > 30 µM (inactive) | CNC(=O)CN1CCC(Oc2cc3c(Nc4cccc(Cl)c4F)ncnc3cc2OC)CC1 [SAPITINIB]

Compound | Kd [1] | Kd [2] | Kd (Activin receptor type-2B) | Kd [3] | Kd (Wee1-like protein kinase) | Kd [4] | Kd [5] | Kd (Glycine--tRNA ligase)
CN1CC[C@@H](c2c(O)cc(O)c3c(=O)cc(-c4ccccc4Cl)oc23)[C@@H]1CO | > 30 µM (inactive) | > 30 µM (inactive) | > 30 µM (inactive) | > 30 µM (inactive) | > 30 µM (inactive) | > 30 µM (inactive) | > 30 µM (inactive) | > 30 µM (inactive)
